The results in this text go back to the NIST ThermoML archive (doi:10.1016/j.jct.2005.04.010).

This data set in a line: activity coefficient (dimensionless); of the first substance listed, at infinite dilution; xn = mol fraction of the nth substance listed. As to conditions: Liquid, x1 = 0.

Structures are written as SMILES. ± gives the expanded uncertainty stated by the source.

In the case of `Cc1ccccc1C` [1,2-dimethylbenzene] + CCCCCCCCn1cc[n+](C)c1.O=S(=O)([N-]S(=O)(=O)C(F)(F)F)C(F)(F)F, the activity coefficient (303.15 K, Chromatography) was 0.98 ± 0.03; the activity coefficient (313.15 K, Chromatography) stood at 1.03 ± 0.03; the activity coefficient (323.15 K, Chromatography) was 1.03 ± 0.03; the activity coefficient (333.15 K, Chromatography) came out at 1.05 ± 0.03.
`Cc1cccc(C)c1` [1,3-dimethylbenzene] + CCCCCCCCn1cc[n+](C)c1.O=S(=O)([N-]S(=O)(=O)C(F)(F)F)C(F)(F)F: the activity coefficient (303.15 K, Chromatography) came to 1.13 ± 0.03; the activity coefficient (313.15 K, Chromatography) turned out to be 1.15 ± 0.04; the activity coefficient (323.15 K, Chromatography) was determined as 1.17 ± 0.04; the activity coefficient (333.15 K, Chromatography) was 1.19 ± 0.04.
Turning to `Cc1cccc(C)c1` [1,3-dimethylbenzene] + CCCCCC[n+]1ccn(C)c1.O=S(=O)([N-]S(=O)(=O)C(F)(F)F)C(F)(F)F, the activity coefficient by setting is: (303.15 K, Chromatography) 1.4 ± 0.05; (313.15 K, Chromatography) 1.41 ± 0.05; (323.15 K, Chromatography) 1.46 ± 0.06; (333.15 K, Chromatography) 1.5 ± 0.06.
The like results for `Cc1ccc(C)cc1` [1,4-dimethylbenzene] + CCCCCCCCn1cc[n+](C)c1.O=S(=O)([N-]S(=O)(=O)C(F)(F)F)C(F)(F)F were, in that order, 1.11 ± 0.03, 1.13 ± 0.03, 1.16 ± 0.04 and 1.16 ± 0.04.
On to `Cc1ccc(C)cc1` [1,4-dimethylbenzene] + CCCCCC[n+]1ccn(C)c1.O=S(=O)([N-]S(=O)(=O)C(F)(F)F)C(F)(F)F, for which the activity coefficient was 1.42 ± 0.05 (303.15 K, Chromatography); 1.42 ± 0.05 (313.15 K, Chromatography); 1.48 ± 0.06 (323.15 K, Chromatography); 1.51 ± 0.06 (333.15 K, Chromatography).
For `C=CCCCCC` [1-heptene] + CCCCCCCCn1cc[n+](C)c1.O=S(=O)([N-]S(=O)(=O)C(F)(F)F)C(F)(F)F, the activity coefficient runs as follows: (303.15 K, Chromatography) 4.29 ± 0.2; (303.15 K, dilutor) 4.33 ± 0.22; (313.15 K, Chromatography) 4.23 ± 0.19; (313.15 K, dilutor) 4.26 ± 0.21; (323.15 K, Chromatography) 4.13 ± 0.19; (323.15 K, dilutor) 4.2 ± 0.21. The activity coefficient (333.15 K, Chromatography) worked out at 4.13 ± 0.19 and the activity coefficient (333.15 K, dilutor) amounted to 4.15 ± 0.21.
For `C=CCCCCC` [1-heptene] + CCCCCC[n+]1ccn(C)c1.O=S(=O)([N-]S(=O)(=O)C(F)(F)F)C(F)(F)F, the activity coefficient runs as follows: (303.15 K, Chromatography) 6.46 ± 0.3; (303.15 K, dilutor) 6.28 ± 0.31; (313.15 K, Chromatography) 6.28 ± 0.29; (313.15 K, dilutor) 6.12 ± 0.31; (323.15 K, Chromatography) 6.09 ± 0.28; (323.15 K, dilutor) 5.96 ± 0.3. Besides, the activity coefficient is, setting by setting: (333.15 K, Chromatography) 5.96 ± 0.27; (333.15 K, dilutor) 5.86 ± 0.29.
For the molecule `C=CCCCCC` [1-heptene] + CCCC[N+]1(C)CCCC1.O=S(=O)([N-]S(=O)(=O)C(F)(F)F)C(F)(F)F, the activity coefficient is, setting by setting: (303.15 K, dilutor) 10.4 ± 0.5; (313.15 K, dilutor) 9.97 ± 0.5; (323.15 K, dilutor) 9.69 ± 0.48; (333.15 K, dilutor) 9.37 ± 0.47.
`C=CCCC` [1-pentene] + CCCCCCCCn1cc[n+](C)c1.O=S(=O)([N-]S(=O)(=O)C(F)(F)F)C(F)(F)F: the activity coefficient came out at 2.52 ± 0.11 (303.15 K, Chromatography); 2.54 ± 0.13 (303.15 K, dilutor); 2.53 ± 0.11 (313.15 K, Chromatography); 2.53 ± 0.13 (313.15 K, dilutor); 2.46 ± 0.11 (323.15 K, Chromatography); 2.53 ± 0.13 (323.15 K, dilutor). Also, the activity coefficient (333.15 K, Chromatography) amounted to 2.45 ± 0.11 and the activity coefficient (333.15 K, dilutor) is 2.52 ± 0.13.
On to `C=CCCC` [1-pentene] + CCCCCC[n+]1ccn(C)c1.O=S(=O)([N-]S(=O)(=O)C(F)(F)F)C(F)(F)F, for which the activity coefficient was found to be 3.47 ± 0.16 (303.15 K, Chromatography); 3.36 ± 0.17 (303.15 K, dilutor); 3.4 ± 0.15 (313.15 K, Chromatography); 3.33 ± 0.17 (313.15 K, dilutor); 3.3 ± 0.15 (323.15 K, Chromatography); 3.3 ± 0.17 (323.15 K, dilutor). Besides, the activity coefficient reads like this: (333.15 K, Chromatography) 3.31 ± 0.15; (333.15 K, dilutor) 3.23 ± 0.16.
`C=CCCC` [1-pentene] + CCCC[N+]1(C)CCCC1.O=S(=O)([N-]S(=O)(=O)C(F)(F)F)C(F)(F)F: the activity coefficient by setting is: (303.15 K, dilutor) 4.95 ± 0.25; (313.15 K, dilutor) 4.91 ± 0.25; (323.15 K, dilutor) 4.81 ± 0.24; (333.15 K, dilutor) 4.8 ± 0.24.
Regarding `CCOC(C)(C)C` [2-ethoxy-2-methylpropane] + CCCCCC[n+]1ccn(C)c1.O=S(=O)([N-]S(=O)(=O)C(F)(F)F)C(F)(F)F, the activity coefficient reads like this: (303.15 K, Chromatography) 2.69 ± 0.12; (313.15 K, Chromatography) 2.74 ± 0.12; (323.15 K, Chromatography) 2.76 ± 0.13; (333.15 K, Chromatography) 2.82 ± 0.13.
On the same counts, the results for `CCC(C)(C)OC` [2-methoxy-2-methylbutane] + CCCCCC[n+]1ccn(C)c1.O=S(=O)([N-]S(=O)(=O)C(F)(F)F)C(F)(F)F are 1.83 ± 0.08, 1.9 ± 0.08, 1.94 ± 0.09 and 2.02 ± 0.09.
For the molecule `CC(C)=O` [acetone] + CCCCCC[n+]1ccn(C)c1.O=S(=O)([N-]S(=O)(=O)C(F)(F)F)C(F)(F)F, the activity coefficient worked out at 0.31 ± 0.02 (303.15 K, dilutor); 0.32 ± 0.02 (313.15 K, dilutor); 0.34 ± 0.02 (323.15 K, dilutor); 0.34 ± 0.02 (333.15 K, dilutor).
`c1ccccc1` [benzene] + CCCCCCCCn1cc[n+](C)c1.O=S(=O)([N-]S(=O)(=O)C(F)(F)F)C(F)(F)F: the activity coefficient (303.15 K, Chromatography) worked out at 0.63 ± 0.03; the activity coefficient (313.15 K, Chromatography) came out at 0.65 ± 0.03; the activity coefficient (323.15 K, Chromatography) is 0.65 ± 0.03; the activity coefficient (333.15 K, Chromatography) was determined as 0.66 ± 0.03.
`c1ccccc1` [benzene] + CCCCCC[n+]1ccn(C)c1.O=S(=O)([N-]S(=O)(=O)C(F)(F)F)C(F)(F)F: the activity coefficient (303.15 K, Chromatography) came to 0.75 ± 0.03; the activity coefficient (313.15 K, Chromatography) was determined as 0.76 ± 0.03; the activity coefficient (323.15 K, Chromatography) turned out to be 0.78 ± 0.03; the activity coefficient (333.15 K, Chromatography) was 0.79 ± 0.03.
As to `c1ccccc1` [benzene] + CCCC[N+]1(C)CCCC1.O=S(=O)([N-]S(=O)(=O)C(F)(F)F)C(F)(F)F, the activity coefficient is, setting by setting: (303.15 K, dilutor) 0.84 ± 0.04; (313.15 K, dilutor) 0.86 ± 0.04; (323.15 K, dilutor) 0.88 ± 0.04; (333.15 K, dilutor) 0.89 ± 0.04.
For the molecule `CCC(C)=O` [butanone] + CCCCCC[n+]1ccn(C)c1.O=S(=O)([N-]S(=O)(=O)C(F)(F)F)C(F)(F)F, the activity coefficient by setting is: (303.15 K, Chromatography) 0.41 ± 0.03; (313.15 K, Chromatography) 0.42 ± 0.03; (323.15 K, Chromatography) 0.44 ± 0.03; (333.15 K, Chromatography) 0.44 ± 0.03.
In the case of `CCC(C)=O` [butanone] + CCCC[N+]1(C)CCCC1.O=S(=O)([N-]S(=O)(=O)C(F)(F)F)C(F)(F)F, the activity coefficient turned out to be 0.52 ± 0.03 (303.15 K, dilutor); 0.53 ± 0.03 (313.15 K, dilutor); 0.55 ± 0.03 (323.15 K, dilutor); 0.56 ± 0.03 (333.15 K, dilutor).
For the molecule `C1CCCCC1` [cyclohexane] + CCCCCCCCn1cc[n+](C)c1.O=S(=O)([N-]S(=O)(=O)C(F)(F)F)C(F)(F)F, the activity coefficient turned out to be 3.64 ± 0.17 (303.15 K, Chromatography); 3.67 ± 0.18 (303.15 K, dilutor); 3.52 ± 0.16 (313.15 K, Chromatography); 3.59 ± 0.18 (313.15 K, dilutor); 3.36 ± 0.15 (323.15 K, Chromatography); 3.48 ± 0.17 (323.15 K, dilutor). For the same molecule, the activity coefficient was 3.29 ± 0.15 (333.15 K, Chromatography) and 3.39 ± 0.17 (333.15 K, dilutor).
